We go through five compounds from US20210139943A1, “MEDIUM AND PROCESS FOR THE CULTURE AND SELECTIVE ISOLATION OF THE BACTERIUM ENTEROCOCCUS HIRAE” (FONDATION MEDITERRANEE INFECTION, priority 2017, published 2021).

Data set [1] concerns E. hirae. Put plainly: Determination of sugar: colour change on medium with indicator dye. Particulars: sugar in medium with bromocresol purple indicator dye. The class given is cell-based, Enterococcus hirae. The source says:
(§1) To detect the consumption of sugar by bacteria, the inventors added to the medium of the present invention an indicator dye whose colour will vary according to the pH of the medium. Indeed, when the bacteria consume sugar, there is an acidification of the medium, which leads to a change in the indicator dye. To determine the most appropriate indicator dyer, the inventors tested several, including the following three: phenol red, bromocresol green and bromocresol purple. Based on concentrations in media already containing one of these indicator dyes, the inventors first chose to test a concentration of 25 mg/L [12] for each of the chosen indicators.
(§2) Once the indicator dye was chosen, the inventors were able to determine which sugar was most suitable for the present invention.
(§3) Finally, the last sugar tested was mannitol. […] The inventors therefore chose mannitol as sugar for the formulation of said invention, at a concentration of 10 g/L, a concentration frequently found in culture media.

Data set [2] deals with E. faecalis. The description is as above. The class given is cell-based, Enterococcus faecalis. As to conditions: sugar in medium with bromocresol purple indicator dye.
Description: as §1, §2, §3

In data set [3] the test system is E. faecium. The description is as above. The class given is cell-based, Enterococcus faecium. Particulars: sugar in medium with bromocresol purple indicator dye.
Description: as §1, §2
This sugar cannot therefore be used to isolate E. hirae.
as §3

The test system of another data set is Enterococcus faecium. Also on record: key: Variable refers to the fact that consumption of this sugar by E. faecium is strain dependent. As to conditions: Table 1, literature data; cited from earlier work.
Data set [4] in a line: Dilution of nalidixic acid in water. In kind it is physicochemical. The method, then:
In addition, the concentration of nalidixic acid was reduced from 250 mg/L to no more than 100 mg/L due to its poor dilution in water above 100 mg/L and colistin, a polypeptide antibiotic of the polymyxin family with action on Gram-negative bacteria, was added at a concentration of 25 mg/L to compensate.

In data set [5] the test system is E. hirae. The data set is described as follows: Growth on media with different salt concentrations. In kind it is cell-based, Enterococcus hirae. The method, then:
(§4) Since enterococci are resistant to high salt concentrations, in order to eliminate some Gram-positive bacteria other than enterococci and Gram-negative bacteria resistant to the inhibitors mentioned above, different concentrations of salt (sodium chloride) were tested to find the most appropriate one to add to the formulation of the present invention. Four concentrations were tested (60 g/L, 65 g/L, 70 g/L and 75 g/L).

Data set [6] concerns E. faecium. Put plainly: Growth on media with different salt concentrations. In kind it is cell-based, Enterococcus faecium. Particulars: 60 g/L, 65 g/L, 70 g/L and 75 g/L salt. The method, then: as §4
Data set [7] relates to E. faecalis. Put plainly: Growth on media with different salt concentrations. The class given is cell-based, Enterococcus faecalis. As to conditions: 60 g/L, 65 g/L, 70 g/L and 75 g/L salt. On the procedure:
as §4

For `OC[C@@H](O)[C@@H](O)[C@H](O)[C@H](O)CO` [Mannitol, mannitol], in the data set on E. hirae [1], the “Colour change of E. hirae colonies” value was “remained colourless”. For the same compound, the “Colour change of E. faecalis colonies” value in the data set on E. faecalis [2] was “change in the colour of the medium and the colonies”. Besides, the “Colour change of E. faecium colonies” value in the data set on E. faecium [3] is “change in the colour of the medium and the colonies”.

`OC[C@H]1O[C@H](OCC2O[C@@H](O)[C@H](O)[C@@H](O)[C@@H]2O)[C@H](O)[C@@H](O)[C@H]1O` (stereo partly drawn) [Melibiose, melibiose]: the “Colour change of E. faecium colonies” value with E. faecium [3] is recorded as “variable results”. In addition, in the data set with Enterococcus faecium, the “Sugar consumption by Enterococcus faecium” value was “V”.

In the case of `OC[C@H]1O[C@H](OC[C@H]2O[C@H](O[C@]3(CO)O[C@H](CO)[C@@H](O)[C@@H]3O)[C@H](O)[C@@H](O)[C@@H]2O)[C@H](O)[C@@H](O)[C@H]1O` [Raffinose, raffinose], the “Colour change of E. faecalis colonies” value in the data set with E. faecalis [2] is “no colour change”. Moreover, the “Colour change of E. faecium colonies” value in the data set on E. faecium [3] is “no colour change”.

Take `CCn1cc(C(=O)O)c(=O)c2ccc(C)nc21` [nalidixic acid]: in data set [4], the “Dilution in water (poor above this concentration)” value is recorded as “no more than 100 mg/L”.

Regarding `[Cl-].[Na+]` [sodium chloride], the “Growth of E. hirae” value with E. hirae [5] (60 g/L, 65 g/L, 70 g/L and 75 g/L salt) is “had growth for each of the concentrations tested”. In addition, in the data set on E. hirae [5] (reading the agars at 24 hours, 60 to 75 g/L salt), the “Size of E. hirae colonies” value is on record as “the higher the salt concentrations, the smaller the colonies”. The “Growth of E. faecium” value in the data set with E. faecium [6] is recorded as “had growth for each of the concentrations tested”. Further, the “Growth of E. faecalis” value with E. faecalis [7] was “had growth for each of the concentrations tested”.
